According to patent publication US10131671B2, “Organic compounds” (Intra-Cellular Therapies, Inc., priority 2014, dated 2018):

Legend:
[1] = Pharmacokinetic analysis in mice: plasma and brain levels after oral dose; type: in vivo, C57BL/6 mice; settings: male, C57BL/6, mouse, 10 mg/kg, 10 mg/kg PO, Brain AUC(0-2h)/Plasma AUC(0-2h) or Brain Cmax/Plasma Cmax, read-out: ratio of brain/plasma concentration (B/P)
Description: Animals: Male, C57BL/6 mice (Jackson Labs, 25-30 g in body weight) are provided by Jackson Laboratories. Up to five mice are housed per cage and are maintained under a 12 hour light/dark cycle with access to food and water ad libitum. All procedures for the handling and use of animals follow the guidelines of the Institutional Animal Care and Use Committee (IACUC) of Columbia University, in accordance with NIH guidelines. Eight week-old mice (N=3/dose level or treatment group) are used in the experiments.
Experimental Treatment: Compounds: Selected Compounds of the Invention are evaluated in the present study. Formulation/Vehicle: 3% 1N HCl, 5% Labrasol and 92% of 5% TPGS in 0.05M Citrate buffer (CB, pH 4.0). The test compound(s) are prepared as solution in vehicle and are dosed in a volume of 8 ml/kg.
Compound Preparation: Powdered stocks of the test compound(s) are measured and dissolved in 3% 1N HCl, 5% Labrasol and 92% of 5% TPGS in 0.05M Citrate buffer (CB, pH 4.0). Two or three layers of 3 mm glass beads are added to the bottom of the 10 ml glass tube to promote mixing. […]
Treatment of Animals: Mice (N=3 mice/dose/time point) receive a 10 mg/kg oral (PO) dose of the test compound(s) at time 0. […] Plasma and brain tissue samples are processed and analyzed by the analytical group using LC-MS/MS methods, as described below. […]
Each tube is vortexed, then centrifuged for 20 min at 15000 rpm using a Tomy benchtop centrifuge at 4° C. Standard is an internal standard used for LC-MS/MS quantitation. […]
HPLC and Mass Spectrometric Analysis: Analysis to quantify the concentration of each compound in plasma and brain homogenate is carried out using reverse phase HPLC followed by mass spectrometric detection using the parameters listed:
Each compound is detected and quantified using Multiple Reaction Monitoring (MRM) of positive electrospray mode with a Waters QuattroMicro™ mass spectrometry system.
RESULTS: Plasma and Brain Analysis: All the test compound(s) tested could be detected and analyzed when spiked into control plasma. […]

[2] = system: isoproterenol-induced cardiac hypertrophy; assay: Isoproterenol induced cardiac hypertrophy mouse model; type: in vivo, 129S1/SvlmJ mice; settings: for HW/TL Ratio (mean): isoproterenol 10 mg/kg s.c. days 4-9, heart weight/tibia length on day 10
Description: The compound of Example 2 is tested in a mouse model where the mice are treated with isoproterenol. Such a model can be useful for extrapolating to diseases or disorders involving an enlargement of the heart or cardiac tissue, e.g., congestive heart disease. Animals: 129S1/SvlmJ mice, 20-40 grams, Jackson Laboratories (Bar Harbor, Me.). Test Compound of Example 2: Test compound of Example 2 is supplied as a powder. The test article dosing solutions are prepared on the day of administration by dissolving the test compound in the vehicle (0.9% sodium chloride for injection, U.S.P.) at concentration of 2.0 mg/mL stock/dosing solution. The compound are agitated with a vortex mixer and sonicated to ensure the compound is in solution. The 2.0 mg/mL solution is diluted with vehicle to create the 0.2 mg/mL and the 0.6 mg/mL dosing solutions. Dosing solutions are stored in a refrigerator between the daily doses and are allowed to return to room temperature before the evening dose. Test Compound Isoproterenol: Test compound isoproterenol is supplied by Sigma (St. Louis, Mo.) as a powder. The test article dosing solutions are prepared on the day of administration by dissolving the test compound in the vehicle (0.9% sodium chloride for injection, U.S.P.) at concentration of 2.0 mg/mL. The compound is agitated with a vortex mixer and sonicated to ensure the compound is in solution. [table] Mice in group 1 and 2 are dosed daily via subcutaneous administration. On days 7, 10 and 14, 2 animals from groups 1 and 2 are weighed and then euthanized via CO2 asphyxiation. Hearts are harvested and gently infused with ice cold saline until clear. The entire heart is weighed. The atria are removed and the left ventricle (with septum) is separated from the right ventricle. The ventricles are weighed separately. The left tibia is removed and separated from the soft tissue. Longitudinal measurement are obtained with a digital micrometer. Mice in groups 3-6 are dosed once/day with isoproterenol subcutaneously from Days 4-9 and twice/day with vehicle or test compound via intraperitoneal administration from Days 1 to 9. On Day 10 (based on the results from Groups 1 and 2) animals from each group are weighed and then euthanized via CO2 asphyxiation. Hearts are harvested and gently infused with ice cold krebs-henseleit buffer (Sigma 3753) until clear. The entire heart is weighed. The atria are removed and the left ventricle (with septum) is separated from the right ventricle. The ventricles are weighed separately. The ventricles are stored in ice cold krebs-henseleit buffer for approximately 15 minutes and then transferred to 10% buffered formalin at room temperature until possible shipment for possible future analysis. The left tibia is removed and separated from the soft tissue. Longitudinal measurement is obtained with a digital micrometer.

[3] = system: TAC-induced hypertrophy; assay: Transverse aortic constriction (TAC) mouse model of cardiac hypertrophy; type: in vivo, C59Bl/6 mice; settings: for Terminal LV + S/TL Ratio (mean) (TAC ratio): day 1-28 post-surgery, left ventricle+septum weight/tibia length
Description: Animals: C59Bl/6 mice, 20-40 grams, Charles River (Portage, Mich.).
Test Compound of Example 2: Test compound of Example 2 is formulated. The test article dosing solutions are prepared by titrating the free base with 1 mole/mole dilute (0.02N) HCl and diluting the dissolved test compound in the vehicle (0.5% methylcellulose in distilled water) to a final concentration of 0.45 mg/mL and 1.5 mg/mL dosing solution. A supply of formulation for thirty days of dosing are prepared (day 1-6 for 1st surgical cohort).
Reference Test Compound—Losartan potassium: Losartan is obtained by CorDynamics, and prepared on the day of administration by dissolving in the vehicle (0.5% methylcellulose in distilled water) at concentration of 4.5 mg/mL dosing solution. The compound is agitated with a vortex mixer and sonicated to ensure the compound is in solution.
Transverse Aortic Constriction Surgery: Animals are anesthetized with isoflurane using a nose cone connected to a vaporizer that delivers 1-2% isoflurane driven by 100% oxygen. After initial anesthesia with isoflurane, mice receive 1 mg/kg Buprenex SR (1 mg/mL, s.c.) and 10 mg/kg of etomidate (2 mg/mL, i.p.). Animals are intubated for mechanical ventilation. The endotracheal tube is connected to a mechanical ventilator that provides positive-pressure ventilation with 1-2% isoflurane remainder oxygen, set to maintain ˜120 breaths/min with a tidal volume of ˜200 μL. Body temperature is monitored throughout the experiment.
A sternotomy is performed from the manubrium through the second or third rib in order to expose the aorta in the thoracic cavity. The aorta is cleaned of surrounding tissue and the transverse aorta clamped with a titanium microclip, the diameter similar to a 27 G needle. The transverse aorta from mice in Group 1 is cleaned of surrounding tissue but not clamped. The incision is closed, endotracheal tube is removed and animal is allowed to recover.
Mice are dosed twice daily with vehicle or the compound of Example 2 via oral administration with approximately 6 hours between each dose beginning at 1 day post-surgery. Mice are dosed once daily with losartan via oral administration. Body weights are taken after arrival, prior to surgery, prior to dosing on the first day of dosing and every third day of dosing for dose calculation purposes.
On day 28, echocardiographic measurements are performed for all experimental groups. Animals are anesthetized with isoflurane using a nose cone connected to a vaporizer that delivers 1-2% isoflurane driven by 100% oxygen. Mice are placed in the dorsal decubitus position on a warming platform to maintain body temperature at 37±0.5° C. Heart rate is monitored throughout the experiment. Transthoracic two-dimensional, B-mode, M-mode and pulsed Doppler images are acquired with a high-resolution echocardiographic system (VeVo 770, Visual Sonics, Toronto, ON, Canada) equipped with a 30-MHz mechanical transducer.
After echocardiographic measurements, animals are euthanized via CO2 asphyxiation. Hearts and lungs are harvested and gently infused with ice cold krebs-henseleit buffer (Sigma 3753) until clear. Lungs are weighed and the right and left lung are separated. The right and left lung are immediately frozen in liquid nitrogen and placed into separate tubes. The entire heart is weighed. The atria are removed and the left ventricle (with septum) is separated from the right ventricle. The ventricles are weighed separately before being divided into two pieces. Ventricle pieces are frozen in liquid nitrogen and placed into separate tubes. Liquid nitrogen samples are stored in a freezer set to maintain approximately −80° C. until shipped on dry ice to the Sponsor for possible future analysis.
The left tibia is removed and separated from the soft tissue. Longitudinal measurement will be obtained with a digital micrometer. The dissected tibia is disposed of with the rest of the carcass.

CN1C(=O)c2c(nn(Cc3ccc(C(F)(F)F)cc3)c2Nc2ccccc2)N2C1=N[C@@H]1CCC[C@@H]12 [(6aR,9aS)-3-(phenylamino)-5,6a,7,8,9,9a-hexahydro-5-methyl-2-(4-(trifluoromethyl)-benzyl)-cyclopent[4,5]imidazo[1,2-a]pyrazolo[4,3-e]pyrimidin-4(2H)-one, reference compound]
Kp [1]: 4.5 to 4.8

CN1C(=O)c2c(nn(Cc3ccncc3)c2Nc2ccc(F)cc2)N2CC(C)(C)N=C12 [Example 1, 3-((4-fluorophenyl)amino)-5,7,7-trimethyl-2-(pyridin-4-ylmethyl)-7,8-dihydro-2H-imidazo[1,2-a]pyrazolo[4,3-e]pyrimidin-4(5H)-one]
Kp [1]: ≤ 0.1

Cc1ncc(Cn2nc3c(c2Nc2ccc(F)cc2)C(=O)N(C)C2=NC(C)(C)CN23)cn1 [Example 2, 3-((4-fluorophenyl)amino)-5,7,7-trimethyl-2-((2-methylpyrimidin-5-yl)methyl)-7,8-dihydro-2H-imidazo[1,2-a]pyrazolo[4,3-e]pyrimidin-4(5H)-one]
reduction in the heart weight/tibia length (HW/TL) ratio compared to vehicle ([2]; 1 mg/kg): ~8%
HW/TL Ratio (mean) ([2]; 1 mg/kg twice/day days 1-9): 8.49 mg/mm
decrease of (LV+RV)/TL ratio (left ventricle plus right ventricle weight/tibia length) compared to vehicle ([2]; 3 mg/kg): 10%
prevention of cardiac hypertrophy ([2]; 3 mg/kg): significantly prevents cardiac hypertrophy
reduction in the heart weight/tibia length (HW/TL) ratio compared to vehicle ([2]; 3 mg/kg): ~12.5%
HW/TL Ratio (mean) ([2]; 3 mg/kg twice/day days 1-9): 8.08 mg/mm
decrease of (LV+RV)/TL ratio (left ventricle plus right ventricle weight/tibia length) compared to vehicle ([2]; 10 mg/kg): 10%
prevention of cardiac hypertrophy ([2]; 10 mg/kg): significantly prevents cardiac hypertrophy
reduction in the heart weight/tibia length (HW/TL) ratio compared to vehicle ([2]; 10 mg/kg): ~12.5%
HW/TL Ratio (mean) ([2]; 10 mg/kg twice/day days 1-9): 8.1 mg/mm
effect on the development of isoproterenol-induced cardiac hypertrophy ([2]; up to 10 mg/kg): statistically significant effect
effect on cardiac hypertrophy induced by the TAC constriction ([3]; 3 mg/kg): tendency to reverse the cardiac hypertrophy
Terminal LV + S/TL Ratio (mean) (TAC ratio) ([3]; 3 mg/kg oral twice/day): 5.8 mg/mm
effect on cardiac hypertrophy induced by the TAC constriction ([3]; 10 mg/kg): tendency to reverse the cardiac hypertrophy
Terminal LV + S/TL Ratio (mean) (TAC ratio) ([3]; 10 mg/kg oral twice/day): 5.8 mg/mm
difference in TAC ratio between the sham group and the treated groups ([3]; sham vs compound groups): not statistically significant

CN1C(=O)c2c(nn(Cc3ccc(S(N)(=O)=O)cc3)c2Nc2ccc(F)cc2)N2CC(C)(C)N=C12 [Example 7, 4-((3-((4-fluorophenyl)amino)-5,7,7-trimethyl-4-oxo-4,5,7,8-tetrahydro-2H-imidazo[1,2-a]pyrazolo[4,3-e]pyrimidin-2-yl)methyl)benzenesulfonamide]
Kp [1]: < 0.05

CCCCc1nc(Cl)c(CO)n1Cc1ccc(-c2ccccc2-c2nn[nH]n2)cc1 [Losartan, Losartan potassium, reference compound]
Terminal LV + S/TL Ratio (mean) (TAC ratio) ([3]; 40 mg/kg (as printed in the results table) oral once/day): 6.2 mg/mm
difference in TAC ratio between the vehicle group and the treated group ([3]; vehicle vs Losartan group): not statistically significant
